From US11472799B2, “Serine threonine kinase (AKT) degradation / disruption compounds and methods of use” (Icahn School of Medicine at Mount Sinai, priority 2018, dated 2022)
“Also recorded” adds a separate entry of the source.

Tests used:
[1] = tested on: AKT; test: Western blot of AKT protein levels and downstream signaling in BT474 cells; assay type: cell-based, human; details: Western blot (FIGS. 1, 3, 4)
Outline: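 Lysates were immunoblotted with chemiluminescent detection for p-AKT Ser473, total AKT, p-S6 Ser240/244 and p-PRAS40 Thr246, using actin as loading control.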

[2] = tested on: AKT; test: Time course Western blot of AKT degradation in BT474 cells; assay type: cell-based, human
Description: (§1) Cells were lysed in 2× sample buffer (125 mM Tris-HCl at pH 6.8, 10% βME, 2% SDS, 20% glycerol, 0.05% Bromophenol Blue, 8 M urea). Protein lysates were loaded into 4-12% Bis-Tris gels and resolved by electrophoresis. Samples were then blotted on PVDF membrane (Millipore IPVH00010) using the wet transfer technique (Invitrogen). Membranes were blocked in 5% milk-TBST for 1 hour, washed in TBST for 10 min, and incubated in primary antibody in 5% milk-TBST or 5% BSA-TBST at 4° C. for 16 h. Membranes were rinsed (3×6 min) in TBST and incubated in horseradish peroxidase-conjugated secondary antibodies in 5% milk-TBST for 1 hour and rinsed again in TBST (3×6 min). Membranes were visualized using the chemiluminescence system (Thermo 34080, 37075) on autoradiography film (Denville E3018). Primary Antibodies: R-actin (Sigma A5316), p-AKT (Ser473 CST-9721), total AKT (CST-9272), p-S6 (Ser240/244, CST-5364), p-PRAS40 (Thr246, CST-2997). Secondary Antibodies: Mouse (Thermo 31432), Rabbit (Thermo 31460).

[3] = tested on: AKT; test: Rescue of XF050-21 induced AKT degradation by pretreatment in BT474 cells; assay type: cell-based, human
Description: BT474 Cells were pre-treated with DMSO, VHL-1 (1 mM), MLN4924 (1 μM), MG-132 (20 μM) or AZD5363 (1 μM) for 2 h, before being treated with the 1 μM XF050-21 compounds for 24 h.
as §1

[4] = tested on: AKT; test: Combination of AKT degrader and mTOR inhibitor, Western blot in BT474 cells; assay type: cell-based, human; details: 24 h, combined with an mTOR inhibitor (Torin1 or Rapamycin)
Description: as §1

[5] = tested on: AKT; test: Western blot of AKT protein levels in PC-3 cells; assay type: cell-based, human; details: 0.3 μM, 1 μM, 3 μM, or 10 μM for 24 h (FIG. 4B)
Description: PC-3, U87MG, HCC1143, MDA-MB-231, MDA-MB-468, BT474 and MCF-7 cell lines were purchased from ATCC. Cell lines were regularly tested in the lab for mycoplasma. All cells were cultured at 37° C. and 5% CO2. PC-3, U87MG, MDA-MB-231, MCF-7 and BT474 cells were cultured in 1×DMEM (Corning, 10-013-CV) with 10% fetal bovine serum (Atlanta Biologicals S11150) and 1× Penicillin/Streptomycin. HCC1143 cells were cultured in RPMI (Corning, 10-040-CV) medium with 10% fetal bovine serum (Atlanta Biologicals S11150) and 1× Penicillin/Streptomycin. Cells were split using 0.05% or 0.25% trypsin (Corning 25-051-Cl or 25-053-Cl, respectively) before they reached full confluence and media was changed every 3-4 days. Cells were treated with compounds individually at different concentrations for 24 hrs. Cells were treated with DMSO, VHL, or PML alone as controls.
as §1

[6] = tested on: AKT; test: Time course Western blot of AKT degradation in PC-3 cells; assay type: cell-based, human; details: PC3 cells, 1 μM
Description: BT474 cells and PC-3 cells were treated with DMSO or the indicated compounds at a fixed concentration of 1 μM for 1, 2, 4, 8, 12, or 24 h. […] The maximum degradation of AKT and inhibition of downstream signaling were observed after 12 h of treatment in PC-3 cells (FIG. 5B).
as §1

[7] = tested on: AKT; test: Western blot of AKT protein levels in MDA-MB-468 cells; assay type: cell-based; details: 0.3 μM, 1 μM, 3 μM, or 10 μM for 24 h
Description: as §1

[8] = tested on: AKT; test: Western blot of AKT protein levels in U87MG cells; assay type: cell-based; details: 0.3 μM, 1 μM, 3 μM, or 10 μM for 24 h
Description: as §1

[9] = tested on: PC-3 cells; test: Cell proliferation (IncuCyte live cell imaging) in PC-3 cells; assay type: cell-based, human; details: PC-3 cells (FIG. 7)
Description: (§2) 1-3×10^3 PC-3 or MDA-MB-468 cells were seeded in 96-well plates in triplicates and treated at the indicated compound concentrations. Cells were monitored using the IncuCyte® live cell imaging system (Essen Bioscience™, Ann Arbor, Mich.) which was placed in a cell culture incubator operated at 37° C. and 5% CO2. Cell confluence was determined using calculations derived from phase-contrast images. The concentration for 50% of maximal inhibition of cell proliferation (GI50) values were determined by fitting to a standard four-parameter logistic using GraphPad Prism® v5.
(§3) Experiments were carried out in 96-well plates in triplicates. A total of 1-3×10^3 cells per well were grown in the presence of 1 μM of AZD5363 (Selleckchem), 1 μM of selected degrader compounds. Cells were then monitored for 3-4 days using the IncuCyte live cell imaging system (Essen BioScience, Ann Arbor, Mich., USA), which was placed in a cell culture incubator operated at 37° C. and 5% CO2. Cell confluence was determined using calculations derived from phase-contrast images. For measurement of cell death DRAQ7 (Cell Signaling #7406) at 1.5 μM was included in the medium and apoptotic red counts were measured in IncuCyte™ FLR automated incubator microscope.

[10] = tested on: MDA-MB-468 cells; test: Cell proliferation (IncuCyte live cell imaging) in MDA-MB-468 cells; assay type: cell-based; details: MDA-MB-468 cells (FIG. 7)
Description: as §2, §3

[11] = tested on: PC-3 cells; test: Colony formation (Crystal Violet) in PC-3 cells; assay type: cell-based, human; details: 0.1-10 μM for 2 weeks (FIG. 8)
Description: (§4) PC-3, MDA-MB-468, HCC1143, and MDA-MB-231 cells were treated with DMSO, AZD5363 or XF050-21 at 0.1 μM, 0.3 μM, 1 μM, 3 μM, or 10 μM for 2 weeks.
(§5) Cells were cultured for 12-17 days in the presence of different compounds. Media with compound was replenished every two days. At the end of the experiment, media was aspirated and viable cells were stained with 0.5% crystal violet dye.

[12] = tested on: MDA-MB-468 cells; test: Colony formation (Crystal Violet) in MDA-MB-468 cells; assay type: cell-based; details: 0.1-10 μM for 2 weeks (FIG. 8)
Description: as §4, §5

[13] = tested on: HCC1143 cells; test: Colony formation (Crystal Violet) in HCC1143 cells; assay type: cell-based; details: 0.1-10 μM for 2 weeks (FIG. 8)
Description: as §4, §5

[14] = tested on: MDA-MB-231 cells; test: Colony formation (Crystal Violet) in MDA-MB-231 cells; assay type: cell-based; details: 0.1-10 μM for 2 weeks (FIG. 8)
Description: as §4, §5

[15] = Mouse PK study, plasma exposure; assay type: in vivo, Swiss Albino mice
Description: Standard PK studies were conducted using male Swiss Albino mice. A single 75 mg/kg intraperitoneal (IP) injection of XF050-21 was evaluated. Plasma concentrations of XF050-21 reported at each of the six time points (30 min, 1 h, 2 h, 4 h, 8 h, and 12 h post dosing) are the average values from 3 test animals.

[16] = tested on: colon cancer xenograft with RAS/RAF activation albeit with PIK3CA mutation; details: alone; xenograft with RAS/RAF activation and PIK3CA mutation; cited from earlier work
[17] = phase I clinical trial (Saura et al., 2017); cited from earlier work

| SMILES | suppression of AKT protein level and AKT activity [1] | time point for the most significant AKT degradation ([2]; BT474 cells (FIGS. 2 and 5)) [h] | time-dependent reduction of AKT, p-AKT, P-PRAS40 (T246), and P-S6 (S240/244) protein levels ([2]; BT474 cells, 1 μM) | mechanism of induced AKT protein degradation [3] | rescue of AKT degradation by pretreatment ([3]; 2 h pretreatment with VHL-1, MLN4924, MG-132 or AZD5363, then 1 μM XF050-21 for 24 h) | AKT protein levels and downstream signaling under combination treatment [4] | AKT protein levels [5] | time-dependent reduction of AKT, p-AKT, P-PRAS40 (T246), and P-S6 (S240/244) protein levels [6] | AKT protein levels [7] | AKT protein levels [8] | cell proliferation inhibition compared with AZD5363 [9] | cell proliferation inhibition compared with AZD5363 [10] | colony formation inhibition compared with AZD5363 [11] | colony formation inhibition compared with AZD5363 [12] | colony formation inhibition compared with AZD5363 [13] | colony formation inhibition compared with AZD5363 [14] | clinical observations during PK study ([15]; male Swiss Albino mice, single 75 mg/kg IP) | bioavailability in mice ([15]; single 75 mg/kg IP injection, plasma) | efficacy in colon cancer xenograft [16] | objective tumor shrinkage [17] |
| --- | --- | --- | --- | --- | --- | --- | --- | --- | --- | --- | --- | --- | --- | --- | --- | --- | --- | --- | --- | --- |
| Cc1ncsc1-c1ccc(CNC(=O)[C@@H]2C[C@@H](O)CN2C(=O)[C@@H](NC(=O)CCCCCCCCCC(=O)N2CCN(CC[C@H](NC(=O)C3(N)CCN(c4ncnc5[nH]ccc45)CC3)c3ccc(Cl)cc3)CC2)C(C)(C)C)cc1 [XF050-21, 4-amino-N-((S)-1-(4-chlorophenyl)-3-(4-(11-(((S)-1-((2S,4R)-4-hydroxy-2-((4-(4-methylthiazol-5-yl)benzyl)carbamoyl)pyrrolidin-1-yl)-3,3-dimethyl-1-oxobutan-2-yl)amino)-11-oxoundecanoyl)piperazin-1-yl)propyl)-1-(7H-pyrrolo[2,3-d]pyrimidin-4-yl)piperidine-4-carboxamide] | effective in suppressing both AKT protein level and AKT activity | 24 | time-dependently reduce | mediated by hijacking the E3 ubiquitin ligase VHL | can be rescued by VHL-1, MLN4924, MG-132 or AZD5363 pretreatment; also recorded: can be blocked by pretreatment of VHL-1, MLN4924, MG132, and AZD5363; also recorded: can be rescued by pretreatment of the cells with VHL-1, MLN4924, MG132 and AZD5363 | reduced AKT protein levels and inhibited downstream signaling; also recorded: significantly reduced the AKT protein levels and AKT downstream signaling | significantly reduced | time-dependently reduces | significantly reduced | significantly reduced | more effective than AZD5363; also recorded: better cell proliferation inhibition activity than AZD5363 | more effective than AZD5363; also recorded: better cell proliferation inhibition activity than AZD5363 | more effective in inhibiting cancer cell proliferation than AZD5363; also recorded: better colony formation inhibition than AZD5363 | more effective in inhibiting cancer cell proliferation than AZD5363; also recorded: better colony formation inhibition than AZD5363 | more effective in inhibiting cancer cell proliferation than AZD5363; also recorded: better colony formation inhibition than AZD5363 | more effective in inhibiting cancer cell proliferation than AZD5363; also recorded: better colony formation inhibition than AZD5363 | no abnormal clinical observations noted | Bioavailable |  |  |
| CC(C)NC[C@@H](C(=O)N1CCN(c2ncnc3c2[C@H](C)C[C@H]3O)CC1)c1ccc(Cl)cc1 [GDC0068] |  |  |  |  |  |  |  |  |  |  |  |  |  |  |  |  |  |  | not very effective | failed to result in significant objective tumor shrinkage |
